Experimental data: patent US20130030055A1, “COMPOSITIONS AND METHODS FOR TREATING HAIR LOSS, HAIR THINNING, AND HAIR COLOR LOSS” (priority 2010, published 2013)

Assays:
Type in all cases: in vivo, human
eyelashes [1] = assay: Open-label study: health outcomes questionnaires and verbal responses
Text: Subjects were instructed to apply bimatoprost 0.03% to the eyelid lash line once daily for 12 weeks using an applicator (Studio Basics Professional Tools Eye Applicators, Paris Presents Incorporated, Gumee, Ill.) for each upper eyelid each evening and, if necessary, to wipe the areas immediately around the eyelid afterward to remove excess medication. Periodic use of artificial tears was allowed, but only prior to administration of bimatoprost 0.03%. Health Outcomes Questionnaires. A questionnaire was used to track adverse events and to assess the subjects' satisfaction with treatment and their subjective evaluation of their eyelashes' appearance. Subjects were asked to answer all questions and return the questionnaire at weeks 4, 8, and 12. Subjects were also asked to respond verbally to 2 additional questions and their responses were recorded by site staff (FIGS. 1-4).

[2] = Open-label study: intraocular pressure measurements
Text: (§1) Subjects were instructed to apply bimatoprost 0.03% to the eyelid lash line once daily for 12 weeks using an applicator (Studio Basics Professional Tools Eye Applicators, Paris Presents Incorporated, Gumee, Ill.) for each upper eyelid each evening and, if necessary, to wipe the areas immediately around the eyelid afterward to remove excess medication. Periodic use of artificial tears was allowed, but only prior to administration of bimatoprost 0.03%.
(§2) Clinical Examinations. Assessments were conducted at baseline and at weekly study visits at weeks 1, 4, 8, 12 (end of treatment period), and 16 (post-treatment follow-up period). At each visit, subjects underwent a complete eye examination by an ophthalmologist that included intraocular pressure measurements, visual acuity, and biomicroscopy. Subjects were queried at each visit for adverse events and these were recorded by the investigator. The presence of periorbital darkening was noted and graded on a scale of 0 to 4, and adverse event data were collected at each visit during the treatment period.
Statistical Analyses. A 2-sided paired t-test was used to evaluate the intraocular pressure change from baseline, and the GEA change from week 1 to week 12 was compared using a Wilcoxon signed-rank test. Analysis of intraocular pressure was performed on a per-eye and per-subject basis. A significance level of 0.05 was used for all statistical tests. Categorical variables were summarized with frequency, count, and percentages.

[3] = Open-label study: adverse events, periorbital darkening, biomicroscopy
Text: as §1, §2
Health Outcomes Questionnaires. A questionnaire was used to track adverse events and to assess the subjects' satisfaction with treatment and their subjective evaluation of their eyelashes' appearance. Subjects were asked to answer all questions and return the questionnaire at weeks 4, 8, and 12. Subjects were also asked to respond verbally to 2 additional questions and their responses were recorded by site staff (FIGS. 1-4).

eyelashes [4] = assay: Randomized vehicle-controlled study: digital image analysis of eyelash length, thickness/fullness, darkness; details: week 16; p<0.0001 vs vehicle
Text: The primary efficacy variable was the change in GEA score from the baseline measurement to the month 4 (week 16) measurement. A clinical success was defined as at least a 1-grade increase from baseline. […] The digital image analysis was based on standardized equipment and subject preparation. Digital image analysis is a photographic process developed and performed by Canfield Scientific, Inc. The details regarding these processes are maintained by Canfield Scientific, Inc. and are available upon request. The information describing software and technical processes of digital image analysis is maintained in standard operating procedures (SOPs) and work instruction manuals on file at Canfield Scientific, Inc. Upper eyelash length was measured within a defined eyelash boundary for each eye, known as the full area of interest (AOI). For the digital image, the computer software divided the full AOI image into a series of 25 vertical pixel segments. Within each segment, the maximum upper eyelash length (defined as the maximum height of each segment) was measured in pixels. The mean number of pixels over all segments represented the upper eyelash length and was computed for each digital image across both eyes. Upper eyelash length was additionally measured in terms of millimeters (mm). […] Upper eyelash thickness/fullness was measured within 3 preset rectangular areas (proximal, medial, and distal, each 300×25 pixels) positioned at fixed distances from a standardized point on the eyelash margin. […] Eyelash thickness/fullness was assessed across both eyes as an average of the 3 rectangular areas (i.e., average progressive eyelash thickness), individually for the 3 areas (proximal, medial, and distal), within the full AOI, and within the spline (a narrow area approximately 5 pixels wide, bisecting the AOI). Upper eyelash thickness/fullness was additionally measured in terms of mm2. […] Upper eyelash darkness was determined by lash intensity of the upper eyelash area within the spline. […] Eyelash intensity was calculated within the full AOI and within the spline. […]

Respondents answering yes to "Do your eyes sting or burn upon application?" (eyelashes [1]; week 4 (8/19)): 42.2% | Respondents answering yes to "Do your eyes sting or burn upon application?" (eyelashes [1]; week 8 (6/18)): 33.3% | Respondents answering yes to "Do your eyes sting or burn upon application?" (eyelashes [1]; week 12 (4/15)): 26.7% | Respondents indicating yes at least once to sting or burn upon application (eyelashes [1]; weeks 4, 8, 12): 10 respondents | Mean change from baseline in intraocular pressure across all weeks (per eye) ([2]; bimatoprost 0.03% once daily to eyelid lash line for 12 weeks, per eye): +0.98 to −0.81 mm Hg | Mean change from baseline in intraocular pressure across all weeks (per subject) ([2]; bimatoprost 0.03% once daily to eyelid lash line for 12 weeks, per subject): +0.98 to −0.79 mm Hg | Mean change from baseline intraocular pressure at each time point ([2]; each time point): less than 1 mm Hg | Per-eye intraocular pressure change from baseline ([2]; week 1, P=0.0470): −0.81±2.72 mm Hg | Per-eye intraocular pressure change from baseline ([2]; week 4, P=0.0412): 0.98±3.23 | Clinical significance of changes in intraocular pressure ([2]; within accepted variability of the test): not clinically significant
SMILES: CCNC(=O)CCC/C=C\C[C@@H]1[C@@H](/C=C/[C@@H](O)CCc2ccccc2)[C@H](O)C[C@@H]1O [bimatoprost]
Subjects who noticed changes in eyelashes by week 12 (eyelashes [1]; 16 respondents at week 12): 3 subjects | Subjects who noticed changes in eyelashes within the first month (eyelashes [1]; 16 respondents at week 12): 3 subjects | Subjects who noticed changes in eyelashes within the first week (eyelashes [1]; 16 respondents at week 12): One | Respondents who had started to notice changes in their eyelashes by week 8 (eyelashes [1]; 16 respondents at week 12 (9/16)): 56.3% | Respondents indicating eyelashes were "improved" or "much improved" (eyelashes [1]; by week 12, all respondents): 16 respondents | Respondents agreeing "very much/much" that they had done something positive for their appearance (eyelashes [1]; week 12 (12/16)): 75% | Respondents agreeing "very much/much" that the treatment was helpful (eyelashes [1]; week 12 (15/16)): 94% | Subjects indicating both longer and thicker (eyelashes [1]; week 12, 16 respondents): 1 subject | Subjects reporting all 3 options, longer, thicker, and darker (eyelashes [1]; week 12, 16 respondents): 3 subjects | Respondents choosing "longer" as the eyelash change they noticed most (eyelashes [1]; week 12, Twelve of the 16 respondents): 81.3% | Respondents who had noticed growth or darkening of their eyelashes (verbal question) (eyelashes [1]; week 12, all 23 respondents): 100% | Subjects Reported (n): Eye redness ([3]; Week 1 (n = 24)): 2 | Subjects Reported (n): Periorbital pigmentation changes ([3]; Week 1 (n = 24)): 0 | Subjects Reported (n): Possible brown eye shadow effect ([3]; Week 1 (n = 24)): 1 | Subjects Reported (n): Burning ([3]; Week 4 (n = 27)): 1 | Subjects Reported (n): Dryness and tightness ([3]; Week 4 (n = 27)): 1 | Subjects Reported (n): Eye redness ([3]; Week 4 (n = 27)): 4 | Subjects Reported (n): Mild itchiness ([3]; Week 4 (n = 27)): 3 | Subjects Reported (n): Periorbital pigmentation changes ([3]; Week 4 (n = 27)): 3 | Subjects Reported (n): Periorbital redness ([3]; Week 4 (n = 27)): 1 | Subjects Reported (n): Burning ([3]; Week 8 (n = 20)): 2 | Subjects Reported (n): Mild itchiness ([3]; Week 8 (n = 20)): 2 | Subjects Reported (n): Periorbital pigmentation changes ([3]; Week 8 (n = 20)): 1 | Subjects Reported (n): Redness and dryness ([3]; Week 8 (n = 20)): 1 | Subjects Reported (n): Dryness and darkening ([3]; Week 12 (n = 23)): 1 | Subjects Reported (n): Eye redness ([3]; Week 12 (n = 23)): 1 | Subjects Reported (n): Eyelid redness ([3]; Week 12 (n = 23)): 1 | Subjects Reported (n): Itching ([3]; Week 12 (n = 23)): 1 | Subjects Reported (n): Periorbital pigmentation changes ([3]; Week 12 (n = 23)): 3 | Subjects Reported (n): Red and sore ([3]; Week 12 (n = 23)): 1 | Hyperemia on biomicroscopy examination ([3]; any subject at any visit): not observed | Subjects with periorbital darkening ([3]; during the course of the study, 28 subjects): 18% | Subjects whose pigmentation changes were noted as possible, slight or a little ([3]; of 28 subjects): 11% | Serious or unexpected adverse events ([3]; whole study): no serious or unexpected adverse events | Mean change from baseline in eyelash darkness, as darker eyelashes (eyelashes [4]): 18% | Mean change from baseline in eyelash length, as increase in length (eyelashes [4]): 25% | Mean change from baseline in eyelash thickness/fullness, as increase (eyelashes [4]): 106%
